In assay [1] the target is T1, plasmin (Homo sapiens, UniProt P00747). More on the design: purchased Sankyo (Color Test α2 -D1 Kit). Conditions: background, related art; cited from earlier work.
Target sequence in this assay (P00747 581-810 limits assumed, species assumed): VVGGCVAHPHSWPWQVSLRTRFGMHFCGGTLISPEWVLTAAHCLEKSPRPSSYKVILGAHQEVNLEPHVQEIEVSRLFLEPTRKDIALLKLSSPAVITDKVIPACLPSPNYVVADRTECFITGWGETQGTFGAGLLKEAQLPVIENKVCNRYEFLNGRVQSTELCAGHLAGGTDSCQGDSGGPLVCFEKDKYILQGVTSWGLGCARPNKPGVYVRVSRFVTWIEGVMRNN
Target sequence in this assay (P00747 97-580 partner limits assumed, species assumed): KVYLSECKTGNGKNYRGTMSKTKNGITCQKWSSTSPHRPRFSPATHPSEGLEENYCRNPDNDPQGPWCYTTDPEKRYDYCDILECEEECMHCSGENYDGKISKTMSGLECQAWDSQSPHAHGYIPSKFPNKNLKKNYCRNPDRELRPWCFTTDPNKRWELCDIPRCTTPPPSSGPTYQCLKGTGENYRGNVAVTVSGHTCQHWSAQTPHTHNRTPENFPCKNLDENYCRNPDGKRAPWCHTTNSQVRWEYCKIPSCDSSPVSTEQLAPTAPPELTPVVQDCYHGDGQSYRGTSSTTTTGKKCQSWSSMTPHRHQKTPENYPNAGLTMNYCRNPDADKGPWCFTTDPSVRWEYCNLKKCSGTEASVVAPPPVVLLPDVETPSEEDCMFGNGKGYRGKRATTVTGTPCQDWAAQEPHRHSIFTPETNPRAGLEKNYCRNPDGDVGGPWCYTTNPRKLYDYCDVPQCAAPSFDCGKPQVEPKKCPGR
Assay [2] has as its system thrombin and trypsin. The settings on record: background, related art; cited from earlier work.
The target in assay [3] is T2, human plasma kallikrein (Homo sapiens, UniProt P03952).
T2 construct: purchased Kabi Co., Ltd
The assay is described as follows: Kallikrein-inhibiting activity, synthetic substrate S-2302. The class given is biochemical. Conditions: S-2302, pH 8.0, 37° C. An excerpt: (§1) Synthetic substrates used for testing the inhibitory activity of the inhibitors on decomposition of substrates by the enzymes were as follows. For plasmin, PS-994 (H--D--Lys(Tos)--Phe--Lys--CHA·2HCl, mfd. by NITTO BOSEKI Co., Ltd.) was used; for thrombin and trypsin, PS-915 (H--D--Phe--Pro--Arg--CHA·2HCl, mfd. by NITTO BOSEKI Co., Ltd.); for Factor Xa, PS-2000 (Z--D--Lys--(HCO)--Gly--Arg--CHA·HCl, mfd. by NITTO BOSEKI Co., Ltd.); and for kallikrein, S-2302 (H--D--Pro--Phe--Arg--pNA, mfd., by Kabi Co., Ltd.).
(§2) As plasmin, standard plasmin of Sankyo Color Test α2 -D1 Kit was used in an amount of 0.3CU/ml. As thrombin, that of Sankyo Color Test ATIII kit was used in an amount of 1.2 NIHU/ml. As trypsin, that of cord 3703 of Worthington was used in an amount of 2 μg/ml. As human Factor Xa, that of Boehringer Manheim Co., Ltd. was used in an amount of 0.25 U/ml. As human plasma kallikrein, that of Kabi Co., Ltd. was used in an amount of 0.12 U/ml. As terminating color reagents, those for Sankyo Color Test Kit were used. The reactions were carried out at 37° C. unless otherwise specified.
Each of aqueous solutions (0.1 ml) of the inhibitors which solutions were various in their respective concentrations was added to 0.4 ml of a buffer solution (a 150 mM aqueous sodium chloride solution containing 50 mM Tris, pH 8.0), and the resulting mixture was heated for 5 minutes. Then, 0.1 ml of a kallikrein solution [containing 0.5% bovine serum albumin (No. A8022 available from Sigma Chemical Co.)] was added, followed by incubation for 5 minutes. Subsequently, a 10 mM S-2302 aqueous solution (0.1 ml) was added. The reaction was terminated by addition of a 20% aqueous acetic acid solution. Absorbance at 405 nm was measured and IC50 was measured in the manner described above.

The target of assay [4] is T1, plasmin. The assay is described as follows: Plasmin-inhibiting activity, synthetic substrate PS-994. Type of assay: biochemical. More on the design: purchased Sankyo (Color Test α2 -D1 Kit). The settings on record: PS-994, pH 7.8, 37° C.
Description: as §1, §2
Each of aqueous solutions (0.1 ml) of the inhibitors which solutions were various in their respective concentrations was added to 0.4 ml of a buffer solution (a 150 mM aqueous sodium chloride solution containing 100 mM Tris, pH 7.8), and the resulting solution was heated for 5 minutes. To this solution was added 0.2 ml of plasmin solution, followed by incubation for 5 minutes, and then 0.1 ml of a PS-994 solution (10 mM) was added, and then incubated for 5 minutes. After completion of the reaction, 2.0 ml of terminating color reagent was added, and after standing for 10 minutes, absorbance at 700 nm was measured. A concentration of the inhibitor in the reaction system at which the absorbance was one-half that obtained in the absence of the inhibitor was determined as IC50.
Target sequence in this assay (P00747 581-810 limits assumed, species assumed): as the sequence (P00747 581-810 limits assumed, species assumed) above
Target sequence in this assay (P00747 97-580 partner limits assumed, species assumed): as the sequence (P00747 97-580 partner limits assumed, species assumed) above

Assay [5] concerns the target T3, human Factor Xa (Homo sapiens, UniProt P00742).
T3 construct: purchased Boehringer Manheim Co., Ltd
The assay is described as follows: Factor Xa-inhibiting activity, synthetic substrate PS-2000. The settings on record: PS-2000, pH 8.5, 37° C. The class given is biochemical.
Description: as §1, §2
Each of aqueous solutions (1 ml) of the inhibitors which solutions were various in their respective concentrations was added to 0.3 ml of a buffer solution (a 150 mM aqueous sodium chloride solution containing 50 mM Tris, pH 8.5 ), and the resulting solution was heated for 5 minutes. Then, 0.1 ml of a Factor Xa solution (a 150 mM aqueous sodium chloride solution containing 50 mM Tris and 20 mM calcium chloride, pH 8.5) was added, followed by incubation for 5 minutes. Subsequently, a 5% polyvinyl pyrrobidone solution (0.1 ml) containing 10 mM PS-2000 was added, followed by incubation for 5 min. Thereafter, 2 ml of terminating color reagent was added. After standing for 10 minutes, absorbance at 700 nm was measured and IC50 was determined in the manner described above.

For assay [6], the target named is T4, thrombin (Homo sapiens, UniProt P00734).
T4 construct: purchased Sankyo (Color Test ATIII kit)
The assay is described as follows: Thrombin-inhibiting activity, synthetic substrate PS-915. The class given is biochemical. The settings on record: PS-915, pH 8.5, 37° C.
Description: as §1, §2
Each of aqueous solutions (0.1 ml) of the inhibitors which solutions were various in their respective concentrations was added to 0.4 ml of a buffer solution (a 150 mM aqueous sodium chloride solution containing 150 mM Tris, pH 8.5), and the resulting solution was heated for 5 minutes. To this solution was added 0.2 ml of thrombin solution, followed by incubation for 5 minutes. Then, 0.1 ml of a PS-915 solution (10 mM) was added, followed by incubation for 5 minutes. Thereafter, 2 ml of terminating color reagent was added. After standing for 10 minutes, absorbance at 700 nm was measured, and IC50 was determined in the manner described above.

In assay [7] the target is T5, trypsin (Bos taurus, UniProt P00760).
T5 construct: purchased Worthington 3703
T5 sequence (P00760 24-246): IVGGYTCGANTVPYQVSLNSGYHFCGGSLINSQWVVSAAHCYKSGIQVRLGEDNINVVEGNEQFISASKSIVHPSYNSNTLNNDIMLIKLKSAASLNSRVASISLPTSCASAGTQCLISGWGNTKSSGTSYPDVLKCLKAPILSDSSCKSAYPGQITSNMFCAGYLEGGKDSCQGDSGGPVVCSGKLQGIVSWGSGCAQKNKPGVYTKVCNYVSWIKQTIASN
The assay is described as follows: Trypsin-inhibiting activity, synthetic substrate PS-915. The class given is biochemical. Conditions: PS-915, pH 8.0, 37° C.
Description: as §1, §2
Each of aqueous solutions (0.1 ml) of the inhibitors which solutions were various in their respective concentrations was added to 0.5 ml of a buffer solution (a 150 mM aqueous sodium chloride solution containing 150 mM Tris, pH 8.0), and the resulting solution was heated for 5 minutes. Then, 0.1 ml of a trypsin solution was added, followed by incubation for 5 minutes. Subsequently, 0.1 ml of a PS-915 solution (10 mM) was added, followed by incubation for 5 minutes. Thereafter, 2 ml of terminating color reagent [containing […] of soybean trypsin inhibitor (No. T-9003, available from Sigma Chemical Co.)] was added. After standing for 10 minutes, absorbance at 700 nm was measured and IC50 was determined in the manner described above.

Assay [8] deals with T1, plasmin. The assay is described as follows: Inhibitory activity on fibrin decomposition by plasmin (natural substrate). The class given is biochemical. More on the design: Standard human serum (0.1 ml); from tissue. Conditions: concentration doubling time for complete dissolution, 25° C. The protocol: The determination was carried out by the method of Okamoto et al. (see Keio Journal of Medicine, vol. 11, p. 105 (1962).
Standard human serum (0.1 ml), 0.4 ml of each of 1/20 M potassium phosphate sodium physiological salt buffer solutions (pH 7.4) containing various concentrations of each inhibitor, and 0.1 ml of a solution of streptokinase in physiological saline (1000 U/ml) were stirred and then cooled at 0° C. for 10 minutes. Thereto was added 0.05 ml of a solution of thrombin in physiological saline (100 NIHU/ml, mfd. by Parke Davis Co. Ltd.) at 0° C. After standing for 1 minute, 0.3 ml of a 0.33% solution of bovine fibrinogen (F-4753, available from Sigma Chemical Co.) in physiological saline was added, and the resulting mixture was allowed to stand at 25° C. The solubility was measured every minute by the standard of judgement of Nakamura (see Allergy, vol. 5, p. 1 (1956)) and the time required for complete dissolution was determined. A concentration of the inhibitor at which said time is twice that required in the absence of the inhibitor was determined as IC50.
Target sequence in this assay (P00747 581-810 limits assumed): as the sequence (P00747 581-810 limits assumed, species assumed) above
Target sequence in this assay (P00747 97-580 partner limits assumed): as the sequence (P00747 97-580 partner limits assumed, species assumed) above

Where a name gives a salt, the structure may show the parent alone. Where a SMILES comes first, the peptide text is derived from it. [ ]: non-standard residue; d: D form. The star is where a group is joined. Tos = Cc1ccc(S(=O)(=O)*)cc1 A value given as a limit tells only on which side of the number the result lay.

The text below walks through data of patent publication US4883863A, “Tripeptide derivatives and antiplasmin agents containing the same” (Nitto Boseki Co., Ltd., priority 1987, dated 1989).

T3 sequence (P00742 235-488 limits assumed): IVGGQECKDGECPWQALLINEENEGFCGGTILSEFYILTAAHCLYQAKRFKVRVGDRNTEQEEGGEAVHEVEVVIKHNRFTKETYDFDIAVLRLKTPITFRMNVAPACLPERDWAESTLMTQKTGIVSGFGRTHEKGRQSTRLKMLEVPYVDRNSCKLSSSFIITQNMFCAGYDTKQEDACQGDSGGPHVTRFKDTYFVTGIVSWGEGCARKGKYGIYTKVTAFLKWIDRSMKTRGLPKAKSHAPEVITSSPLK
T3 sequence (P00742 41-179 partner limits assumed): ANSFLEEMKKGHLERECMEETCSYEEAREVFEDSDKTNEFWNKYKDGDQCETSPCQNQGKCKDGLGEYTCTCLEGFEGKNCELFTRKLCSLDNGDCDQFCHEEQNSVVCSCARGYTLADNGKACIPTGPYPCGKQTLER
T2 sequence (P03952 391-638 limits assumed): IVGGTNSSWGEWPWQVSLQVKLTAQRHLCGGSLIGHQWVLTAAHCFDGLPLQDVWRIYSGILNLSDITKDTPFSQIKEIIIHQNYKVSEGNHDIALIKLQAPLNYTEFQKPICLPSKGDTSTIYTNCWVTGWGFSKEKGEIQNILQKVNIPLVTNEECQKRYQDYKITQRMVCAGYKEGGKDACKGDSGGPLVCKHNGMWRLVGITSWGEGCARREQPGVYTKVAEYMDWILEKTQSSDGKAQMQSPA
T2 sequence (P03952 20-390 partner limits assumed): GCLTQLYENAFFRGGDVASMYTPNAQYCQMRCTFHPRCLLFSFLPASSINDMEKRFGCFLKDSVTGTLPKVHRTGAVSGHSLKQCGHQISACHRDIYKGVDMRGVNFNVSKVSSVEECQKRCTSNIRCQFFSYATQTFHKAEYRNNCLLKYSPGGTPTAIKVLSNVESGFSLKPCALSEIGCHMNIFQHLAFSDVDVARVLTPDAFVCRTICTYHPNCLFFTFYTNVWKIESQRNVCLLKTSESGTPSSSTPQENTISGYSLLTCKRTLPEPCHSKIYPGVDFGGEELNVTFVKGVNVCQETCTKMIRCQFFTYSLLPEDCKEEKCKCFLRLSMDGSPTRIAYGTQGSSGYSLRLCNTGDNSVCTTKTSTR

`CN(C)C(=O)COC(=O)Cc1ccc(OC(=O)c2ccc(NC(=N)N)cc2)cc1` [Camostat]: in assay [1], the antiplasmin activity result is listed as “have antiplamin activity”. Moreover, the “inhibition of proteases other than plasmin, for example, thrombin and trypsin” value (“inhibition” for short) in assay [2] is given as “strongly inhibit”.
As to `Cc1ccc(S(=O)(=O)NCCCC[C@@H](NC(=O)OCC(C)C)C(=O)N[C@@H](Cc2ccccc2)C(=O)N[C@H](C=O)CCCCN)cc1` [Compound 1, N-α-Isobutoxycarbonyl-N-ε-(p-tosyl)-D-lysyl-L-phenylalanyl-L-lysinal hydrochloride], the IC50 (usually the point on the concentration scale where inhibition reaches its midpoint) in assay [3] (Table 4) is 0.18 µM; in assay [4] (Table 4) it was 0.034 µM; in assay [5] (Table 4) it was 8.1 µM; in assay [6] (Table 4), above 1000 µM; in assay [7] (Table 4) it was 2.8 µM; in assay [8] (Table 4), 0.23 µM.
In the case of `CC(=O)N[C@H](CCCCNS(=O)(=O)c1ccc(C)cc1)C(=O)N[C@@H](Cc1ccccc1)C(=O)N[C@H](C=O)CCCCN` [Compound 3, N-α-Acetyl-N-ε-(p-tosyl)-D-lysyl-L-phenylalanyl-L-lysinal hydrochloride] (Ac-[dK](Tos)-Phe-Lys-aldehyde), the IC50 was 4.9 µM in assay [3] (Table 4); 0.66 µM in assay [4] (Table 4); 200 µM in assay [5] (Table 4); above 1000 µM in assay [6] (Table 4); 27 µM in assay [7] (Table 4); 0.37 µM in assay [8] (Table 4).
With `Cc1ccc(S(=O)(=O)NCCCC[C@@H](NS(=O)(=O)c2ccc(C)cc2)C(=O)N[C@@H](Cc2ccccc2)C(=O)N[C@H](C=O)CCCCN)cc1` [Compound 5, N-α-N-ε-Di(p-tosyl)-D-lysyl-L-phenylalanyl-L-lysinal hydrochloride] (Tos-[dK](Tos)-Phe-Lys-aldehyde), the half-maximal inhibitory concentration (IC50) in assay [3] (Table 4) is 0.54 µM; in assay [4] (Table 4), 0.032 µM; in assay [5] (Table 4) it was 16 µM; in assay [6] (Table 4) it was above 1000 µM; in assay [7] (Table 4) it was 3.2 µM; in assay [8] (Table 4), 0.78 µM.
Regarding `Cc1ccc(S(=O)(=O)NCCCC[C@@H](N)C(=O)N[C@@H](Cc2ccccc2)C(=O)N[C@H](C=O)CCCCN)cc1` [Compound 7, N-ε-(p-Tosyl)-D-lysyl-L-phenylalanyl-L-lysinal dihydrochloride] (H-[dK](Tos)-Phe-Lys-aldehyde), the half-inhibitory concentration (IC50) was 0.96 µM in assay [3] (Table 4); 0.17 µM in assay [4] (Table 4); 160 µM in assay [5] (Table 4); above 1000 µM in assay [6] (Table 4); 18 µM in assay [7] (Table 4); 0.27 µM in assay [8] (Table 4).
As to `Cc1ccc(S(=O)(=O)NCCCC[C@@H](NC(=O)OCC(C)C)C(=O)N[C@@H](Cc2ccccc2)C(=O)N[C@@H](CCCCN)C(=O)CCl)cc1` [Compound 13, N-α-Isobutoxycarbonyl-N-ε-(p-tosyl)-D-lysyl-L-phenylalanyl-L-lysine chloromethyl ketone hydrochloride], the 50% inhibitory concentration (IC50) was found to be 0.11 µM in assay [3] (Table 4); 0.031 µM in assay [4] (Table 4); 2.9 µM in assay [5] (Table 4); 2.5 µM in assay [6] (Table 4); 0.68 µM in assay [7] (Table 4); 0.44 µM in assay [8] (Table 4).
`CC(=O)N[C@@H](CC(C)C)C(=O)N[C@@H](CC(C)C)C(=O)N[C@H](C=O)CCCNC(=N)N` [Compound A4, AcLeuLeuArgH.1/2H2 SO4.H2 O (leupeptin), reference compound]: the 50% inhibitory concentration (IC50) in assay [3] (Table 3) was found to be 130 µM; in assay [4] (Table 3) it was 20 µM; in assay [5] (Table 3) it was 14 µM; in assay [6] (Table 3) it was 590 µM; in assay [7] (Table 3), 0.78 µM; in assay [8] (Table 3) it was 5.5 µM.
Regarding `CCOC(=O)c1ccc(OC(=O)CCCCCN=C(N)N)cc1.CS(=O)(=O)O` [FOY], in assay [1], the antiplasmin activity result is reported as “have antiplamin activity”. Further, in assay [2], the “inhibition” value is on record as “strongly inhibit”.
With `N=C(N)Nc1ccc(C(=O)Oc2ccc3cc(C(=N)N)ccc3c2)cc1` [Nafamstat], the antiplasmin activity result in assay [1] was “have antiplamin activity”. The “inhibition” value in assay [2] is reported as “strongly inhibit”.
With `CC(=O)N[C@@H](CC(C)C)C(=O)N[C@@H](CC(C)C)C(=O)N[C@H](C=O)CCCCN` [acetyl-L-leucyl-L-leucyl-lysinal] (Ac-Leu-Leu-Lys-aldehyde), the antiplasmin activity entry in assay [1] is “has antiplasmin activity”.
Consider aprotinin, for which the antiplasmin activity result in assay [1] is “have antiplamin activity”. In assay [2], the “inhibition” value was “strongly inhibit”.
